Bridge positions count the residues as written; N and C are the ends. Square brackets hold non-standard residues; d marks the D form. Ends that are not written are not given here. Peptide text beside a SMILES is read from it. R8 = C=CCCCCCC[C@@](C)(N)C(=O)O; S5 = C=CCCC[C@](C)(N)C(=O)O

Data set [1] has as its system A. baumannii 1757. In words: MIC / checkerboard synergy assay (also with added LPS). Type of data set: cell-based, Acinetobacter baumannii. The note with it: mean ± SD; for MIC (compound alone): LB broth, MIC = 90% of growth prevented, OD600 over 12 h; for MIC, + Rd-LPS (F583): LB medium with soluble deep rough LPS 15 µg/ml; for MIC, + Sm-LPS (055:B5): LB medium with soluble smooth LPS 15 µg/ml; for MIC, No supplement: LB medium without supplement (Table S4). How it is done:
(§1) Minimum inhibitory concentrations of the peptides and antibiotics were determined according to the protocol described by Wiegand et al.. Briefly, two-fold dilution series of cationic peptides in 50 µL volume of LB broth containing 2% DMSO were made in polypropylene 96-well microtiter plates (Ratiolab, L6018123, Dreieich, Germany). The optical density at 600 nm (OD600) of growing bacterial cultures was followed, and at mid-log-phase (OD600 ~0.4–0.5) cultures were diluted to OD600 0.02 and 50 µL was added to the wells, resulting in a total volume of 100 µl, an OD600 of ~0.01 and a DMSO concentration of 1%. An OD600 of ~0.01 accounted for approximately 3 × 10^8 colony forming units per mL (CFU/mL) for A. baumannii, 1 × 10^7 CFU/mL for E. coli and 5 × 10^7 CFU/mL for K. pneumoniae as determined by plate counting.
(§2) In a similar manner, two-fold dilution series of antibiotics were made in polystyrene microtiter plates (Costar, REF3779, Corning NY, United States) in 70 µL volume of LB broth. Then, 50 µL of the antibiotic series was transferred to the peptide containing polypropylene plate, resulting in a checkerboard titration of a peptide on the vertical axis and an antibiotic on the horizontal axis. To some checkerboard assays 15 µg/mL isolated smooth (sm) LPS (from E. coli O55:B5, Sigma-Aldrich, L2880), rough (Ra) LPS (from E. coli EH100, Sigma-Aldrich, L9641) or deep rough (Rd) LPS (from E. coli F583, Sigma-Aldrich, L6893) LPS was added to the LB broth. Mid-log phase cultures were diluted to OD600 0.1 and 10 µL culture was added to each well of the microtiter plate, resulting in a total volume of 110 µL and an OD600 of ~0.01 (~3 × 10^8 CFU/mL), and the OD600 was measured every 15 min for 12 h using the microplate reader. First, the MIC values of the antibiotics alone and the MIC values of the peptides alone were determined as described previously. Similarly, the MIC values of the antibiotics in combination with the different peptides and the MIC values of the peptides in combination with the antibiotics were determined (the fractional inhibitory concentrations (FIC)). […] An FICindex between 0.5 and 1 was considered to be an additive effect.

The subject of data set [2] is sheep red blood cells. The note with it: sheep RBCs in DMEM, 1 h, 32 °C, OD405; for hemolysis at 50 µM: relative to 1% Triton-X100, negative control polymyxin B nonapeptide. How it is done:
Defibrinated sheep blood was purchased from BioTrading (LOT 21118SG66, Mijdrecht, The Netherlands) and kept at 4 °C. As previously described by Phan et al., red blood cells (RBCs) were pelleted by centrifugation at 600× g for 7 min at 4 °C and gently resuspended in phenol red-free Dulbecco’s Modified Eagle Medium (DMEM, Gibco 21063-029, ThermoFisher Scientific, Waltham MA, United States). This was repeated five times until the supernatant appeared colorless. In the meantime, 10-fold dilution series of the peptides at 50 μM, 5 μM and 0.5 μM in 50 µl DMEM, 1% DMSO were made in polypropylene microtiter plates (Ratiolab, L6018123, Dreieich, Germany). Triton-X100 (1%, Sigma-Aldrich T-8787) and DMSO (10%, Sigma-Aldrich D-8418) were used as positive and negative controls, respectively. Polymyxin B (Sigma-Aldrich, p-1411) and polymyxin B nonapeptide (Sigma-Aldrich, p-2076) were used as reference lytic and non-lytic peptides. Then, 50 µL of RBCs was added to each well. The plate was sealed and incubated at 5% CO2 for one hour at 32 °C, after which the plate was centrifuged at 610× g for 5 min at room temperature. Next, 70 µL supernatant was removed and transferred to a flat-bottomed polystyrene microtiter plate (Costar, REF3779) and the OD405, as a measure of released hemoglobin, was determined using a microplate reader (Synergy H1 Multi-Mode Reader or Synergy HTX Multi-Mode Reader, BioTek). Percentage of hemolysis was calculated using the following equation: (2) % hemolysis=(absorbance test sample)-(absorbance diluent)/(absorbance positive control)-(absorbance diluent)

Data set [3] concerns zebrafish larvae. In words: Toxicity in zebrafish larvae (survival after caudal vein injection). The following applies: survival of uninfected larvae vs vehicle (50% DMSO), five days.
Protocol: Transparent Casper zebrafish (Danio rerio) larvae were infected and treated according to protocols described by Van der Sar et al. and Bernard et al. [43, 44]. In short, zebrafish larvae collected from a laboratory-breeding colony kept at 24 °C and a 12:12 h dark/light regime. Larvae were selected based on morphology according to hours post fertilization (hpf) and kept at 28 °C. All protocols followed the international guidelines on the protection of animals used for scientific purposes specified by the EU Directive 2010/63/EU, which allows zebrafish larvae to be used up to the moment of free-living (5–7 dpf). Larvae were dechorionated at 28 hpf and anaesthetized in 0.2% tricaine methanesulfonate (MS222, Fluka A-5040). Larvae were individually infected with 1 nL, containing approximately 100–150 CFU (1–1.5 CFU/mL), of Gram-negative bacteria via microinjection of the caudal vein as described previously [33]. One hour post infection, larvae were treated with cationic (stapled) peptides, antibiotics or a combination of the two via another microinjection of 1 nL in the caudal vein. To correct dilution of the treatment upon injection in the vein (1 nL in 250 nL zebrafish larvae volume), treatments were diluted in 0.1% phenol red (Sigma-Aldrich, p-0290) in phosphate buffered saline (PBS) to 250 times the concentration as tested in vitro. Zebrafish larvae were kept at 30 °C throughout the experiment and survival of the larvae, based on heartbeat, was determined every 24 h for 5 days.
The nature of data set [4]: circular dichroism. The note with it: 5 mM sodium phosphate; pH 7.5; 20 °C; 7.5 uM.
The conditions of data set [5]: normal pooled human serum, 100 µM peptide from 10 mM DMSO stock, 37 °C, samples at 0, 15, 60 min, TCA precipitation, LC-MS TIC vs carbamazepine internal standard, triplicate; Figure 2C. The protocol:
The stability measurements were performed in normal pooled human serum (PHS). The respective peptide was diluted to a final concentration of 100 μM in the aforementioned human serum (from 10 mM peptide stocks in DMSO). Then, 100 μM Carbamazepine was used as an internal standard; 60 μL of aforementioned peptide/Carbamazepine solution in PHS was incubated for 1h at 37 °C/750 rpm and 20 μL samples were taken after 0 min, 15 min and 60 min. Next, 1.5 μL of TCA was added to the sample to precipitate serum proteins. The samples were subsequently incubated on ice for 10 min and then centrifuged (12,000× g, 10 min). Then, 5 μL of supernatant was diluted in 20 μL of H2O/MeCN + 0.1% TFA. The sample was subsequently analyzed by LCMS on an Nucleodur C4-column (Macherey Nagel CC125/4 Nucleodur C4 Gravity, 5 µm) using a linear aqueous MeCN gradient containing FA (0.1%, v/v) and TFA (0.01%, v/v) as ion pair reagent (5–95%, 8 min). Peptides were quantified using the total ion count (TIC) of selected molecular ions. Remaining peptide quantities were calculated by normalizing the peptide peak areas using the internal standard peak areas and subsequently comparing the obtained value with the 0 min measurement. All measurements were performed in triplicate.

Data set [6] has as its system K. pneumoniae 613. The data set is described as follows: MIC / checkerboard synergy assay. The data set is classed as cell-based, Klebsiella pneumoniae. The following applies: compound alone; LB broth, MIC = 90% of growth prevented, OD600 over 12 h; mean ± SD. The protocol: as §1, §2
For data set [7], the system named is K. pneumoniae 94. The data set is described as follows: MIC / checkerboard synergy assay. The data set is classed as cell-based, Klebsiella pneumoniae. The following applies: compound alone; LB broth, MIC = 90% of growth prevented, OD600 over 12 h; mean ± SD. How it is done: as §1, §2
Data set [8] relates to K. pneumoniae 821. The data set is described as follows: MIC / checkerboard synergy assay. The data set is classed as cell-based, Klebsiella pneumoniae. The note with it: compound alone; LB broth, MIC = 90% of growth prevented, OD600 over 12 h; mean ± SD. The protocol:
as §1, §2

For data set [9], the system named is A. baumannii 2196. In words: MIC / checkerboard synergy assay. Type of data set: cell-based, Acinetobacter baumannii. The note with it: compound alone; LB broth, MIC = 90% of growth prevented, OD600 over 12 h; mean ± SD. The protocol:
as §1, §2

Data set [10] relates to A. baumannii 1681. The data set is described as follows: MIC / checkerboard synergy assay. The data set is classed as cell-based, Acinetobacter baumannii. The note with it: compound alone; LB broth, MIC = 90% of growth prevented, OD600 over 12 h; mean ± SD. The protocol:
as §1, §2

Regarding `CC(C)C[C@H](NC(=O)[C@H](Cc1c[nH]c2ccccc12)NC(=O)[C@H](CCCNC(=N)N)NC(=O)[C@H](CC(C)C)NC(=O)[C@]1(C)CCCC=CCCC[C@](C)(NC(=O)[C@H](CCCNC(=N)N)NC(=O)[C@@H](N)CCCNC(=N)N)C(=O)N[C@@H](Cc2ccccc2)C(=O)N[C@@H](CCCNC(=N)N)C(=O)N[C@@H](CCCNC(=N)N)C(=O)N1)C(N)=O` [Peptide L6S1] (H-RR[S5]FRR[S5]LRWL-NH2; staple 3-7), the “MIC (compound alone)” value in [1] came to 1.80 ± 2.68 µM. Further, the “hemolysis at 50 µM” value in data set [2] was “significantly more hemolytic to the RBCs than the negative control”. Moreover, the “Log2FoldChange compared to vehicle injected” value (from here on “Log2FoldChange”) in [3] came to 0.04. The compound also showed a helicity in [4] of 28%.

On to `CC(C)C[C@H](NC(=O)[C@H](CCCNC(=N)N)NC(=O)[C@@H](N)CCCNC(=N)N)C(=O)N[C@@H](Cc1ccccc1)C(=O)N[C@@H](CCCNC(=N)N)C(=O)N[C@@H](CCCNC(=N)N)C(=O)N[C@@]1(C)CCCC=CCCC[C@@](C)(C(N)=O)NC(=O)[C@H](Cc2c[nH]c3ccccc23)NC(=O)[C@H](CCCNC(=N)N)NC(=O)[C@H](CC(C)C)NC1=O` [Peptide L6S2] (H-RRLFRR[S5]LRW[S5]-NH2; staple 7-11), for which the “stability in human serum (in words)” value in [5] was “highest stabilities”. Also, the “MIC (compound alone)” value in data set [1] was 0.93 ± 0.69 µM. Besides, the “hemolysis at 50 µM” value in [2] is on record as “significantly more hemolytic to the RBCs than the negative control”. For the same compound, the “Log2FoldChange” value in data set [3] is -1.21. Also, the helicity in data set [4] came to 19%.

In the case of `CC[C@H](C)[C@@H]1NC(=O)[C@H](CCCNC(=N)N)NC(=O)[C@H](CCCNC(=N)N)NC(=O)[C@](C)(NC(=O)[C@H](CC(C)C)NC(=O)[C@H](CCCNC(=N)N)NC(=O)[C@@H](N)CCCNC(=N)N)CCCCCCC=CCCC[C@@](C)(C(N)=O)NC(=O)[C@H](Cc2c[nH]c3ccccc23)NC(=O)[C@H](CCCNC(=N)N)NC(=O)[C@H](CC(C)C)NC1=O` [Peptide L6S3] (H-RRL[R8]RRILRW[S5]-NH2; staple 4-11), the “MIC (compound alone)” value in data set [1] is given as 1.47 ± 0.48 µM. The “hemolysis at 50 µM” value in data set [2] is “did not cause hemolysis”. Moreover, the “Log2FoldChange” value in data set [3] was -0.40. The helicity in [4] was 23%.

On to `CC(C)C[C@H](NC(=O)[C@H](Cc1c[nH]c2ccccc12)NC(=O)[C@H](CCCCN)NC(=O)[C@H](CCCCN)NC(=O)[C@]1(C)CCCC=CCCC[C@](C)(NC(=O)[C@H](CCCNC(=N)N)NC(=O)[C@@H](N)CCCCN)C(=O)N[C@@H](C(C)C)C(=O)N[C@@H](CCC(N)=O)C(=O)N[C@@H](CCCNC(=N)N)C(=O)N1)C(=O)N[C@@H](CCCNC(=N)N)C(N)=O` [Peptide L8S1] (H-KR[S5]VQR[S5]KKWLR-NH2; staple 3-7), for which the “MIC (compound alone)” value in [1] was found to be 12.76 ± 8.91 µM. The “hemolysis at 50 µM” value in data set [2] is reported as “did not cause hemolysis”. For the same compound, in data set [3], the “Log2FoldChange” value was -0.45. Besides, the helicity in data set [4] came to 49%.

Take `CC[C@H](C)[C@H](NC(=O)[C@H](CCCNC(=N)N)NC(=O)[C@@H](N)CCCCN)C(=O)N[C@H](C(=O)N[C@@H](CCC(N)=O)C(=O)N[C@@H](CCCNC(=N)N)C(=O)N[C@@]1(C)CCCC=CCCC[C@@](C)(C(=O)N[C@@H](CCCNC(=N)N)C(N)=O)NC(=O)[C@H](Cc2c[nH]c3ccccc23)NC(=O)[C@H](CCCCN)NC(=O)[C@H](CCCCN)NC1=O)C(C)C` [Peptide L8S2] (H-KRIVQR[S5]KKW[S5]R-NH2; staple 7-11): in data set [1], the “MIC (compound alone)” value is recorded as 8.69 ± 4.29 µM. The “hemolysis at 50 µM” value in [2] is “did not cause hemolysis”. In addition, the “Log2FoldChange” value in [3] is 0.11. The helicity in [4] turned out to be 25%.

For KRIVQRIKKWLR-NH2 [Peptide L8], the “MIC, + Rd-LPS (F583)” value in data set [1] was found to be 10.83 ± 8.12 µM. Further, the “MIC, + Sm-LPS (055:B5)” value in data set [1] was 0.53 ± 0.59 µM. Besides, in data set [1], the “MIC, No supplement” value is 8.78 ± 11.15 µM. In addition, the “MIC (compound alone)” value in data set [1] is 2.53 ± 1.02 µM; in data set [6] it was 23,74±29,65 µM; in data set [7] it was 165,45±1,91 µM; in data set [8] it was 43,37±28,38 µM; in data set [9], 8,54±5,31 µM; in [10], 5,85±0,47 µM. Further, the “hemolysis in the concentration range tested (in words)” value in data set [2] (0.5, 5 and 50 µM) is recorded as “did not cause hemolysis”. Moreover, the “Log2FoldChange” value in [3] is on record as -0.63. In addition, in [4], the helicity amounted to 16%.

In the case of RRLFRRILRWL-NH2 [Peptide L6], the “MIC, + Rd-LPS (F583)” value in data set [1] turned out to be 0.34 ± 0.40 µM. In [1] (LB medium with soluble rough LPS 15 µg/ml), the “MIC, + Ra-LPS (EH100)” value is 2.50 ± 3.83 µM. The “MIC, + Sm-LPS (055:B5)” value in data set [1] amounted to 9.85 ± 16.34 µM. The “MIC, No supplement” value in data set [1] stood at 1.2 ± 0.43 µM. The “MIC (compound alone)” value is reported as 1.1 ± 1.20 µM in data set [1]; 0,65±0,15 µM in data set [6]; 0,63±0,29 µM in data set [7]; 2,44±2,17 µM in [8]; 0,91±0,59 µM in data set [9]; 0,66±0,13 µM in data set [10]. Also, the “hemolysis at 50 µM” value in data set [2] is “up to 50%”. For the same compound, the “Log2FoldChange” value in [3] is -0.04. Moreover, in [4], the helicity was 15%.

For the origin of these results see PMC8868297, “Stapling of Peptides Potentiates the Antibiotic Treatment of Acinetobacter baumannii In Vivo” (Antibiotics, 2022).
